Results from article PMC12388801, “Identification of Bioactive Peptides from Caenorhabditis elegans Secretions That Promote Indole-3-Acetic Acid Production in Arthrobacter pascens ZZ21” (Microorganisms, 2025).
Like-named read-outs stand apart in the source and are kept apart here. Peptide text beside a SMILES is read from it.

Assay: Solubility assessment of synthetic candidate peptides
Protocol: Candidate peptide sequences identified by LC-MS/MS were synthesized using GenScript Biotech (Nanjing, China). Peptide solubility was tested in various solvents to determine optimal conditions for functional assays. Initial screening was performed in 30 mL of inorganic salt medium with 200 mg/L L-tryptophan. A. pascens ZZ21 was inoculated at 1% (v/v), and peptides were tested at 1 ppm and 0.1 ppm. The peptides were dissolved according to their solubility profiles, with corresponding solvent controls: CK-A (1 ppm blank) and CK-B (0.1 ppm blank). Cultures were incubated at 30 °C, 250 rpm for 48 h, after which IAA levels in the supernatants were measured.
This analysis was conducted by Biotech Pack Scientific Co., Ltd. (Beijing, China).

[1] = synthetic peptide, N/A = lower than 0.1 mg/mL
[2] = synthetic peptide, ultrapure water, N/A = lower than 0.1 mg/mL

| Solubilty in ultrapure water | Structure (SMILES) | Solubilty in 0.1 M PBS [1] | Solubilty in ultrapure water [2] | Solubilty in DMSO [1] |
| --- | --- | --- | --- | --- |
|  | CC(C)C[C@H](NC(=O)[C@H](CCC(N)=O)NC(=O)[C@@H]1CCCN1)C(=O)N[C@@H](CCC(=O)O)C(=O)N[C@H](C(=O)N[C@@H](CC(C)C)C(=O)N[C@H](C(=O)N1CCC[C@H]1C(=O)N[C@@H](CC(N)=O)C(=O)O)C(C)C)C(C)C [Peptide P20] (H-PQLEVLVPN-OH) | N/A (N/A indicates solubility lower than 0.1 mg/mL) | N/A (N/A indicates solubility lower than 0.1 mg/mL) |  |
|  | CC(C)[C@H](NC(=O)[C@H](C)NC(=O)[C@@H](NC(=O)[C@H](C)NC(=O)[C@H](CO)NC(=O)CN)C(C)C)C(=O)NCC(=O)N[C@@H](CCCNC(=N)N)C(=O)O [Peptide P5] (H-GSAVAVGR-OH) | N/A (N/A indicates solubility lower than 0.1 mg/mL) |  |  |
|  | CC(C)C[C@H](NC(=O)CNC(=O)[C@H](Cc1ccccc1)NC(=O)[C@H](C)NC(=O)[C@H](CC(C)C)NC(=O)[C@H](C)NC(=O)[C@H](CC(C)C)NC(=O)[C@@H](N)[C@@H](C)O)C(=O)N[C@H](C(=O)N[C@@H](C)C(=O)O)[C@@H](C)O [Peptide P12] (H-TLALAFGLTA-OH) |  | N/A (N/A indicates solubility lower than 0.1 mg/mL) |  |
|  | CC(C)[C@H](N)C(=O)N[C@H](C(=O)N[C@@H](CC(=O)O)C(=O)N[C@H](C(=O)N[C@@H](CO)C(=O)N[C@@H](CCC(=O)O)C(=O)N[C@H](C(=O)N[C@@H](Cc1ccccc1)C(=O)N[C@@H](Cc1ccccc1)C(=O)N[C@@H](CCCCN)C(=O)O)C(C)C)C(C)C)[C@@H](C)O [Peptide P28] (H-VTDVSEVFFK-OH) | N/A (N/A indicates solubility lower than 0.1 mg/mL) | N/A (N/A indicates solubility lower than 0.1 mg/mL) |  |
|  | CC(C)C[C@H](NC(=O)[C@H](CC(=O)O)NC(=O)[C@@H](NC(=O)[C@@H](NC(=O)[C@@H](N)CC(C)C)[C@@H](C)O)C(C)C)C(=O)N[C@@H](Cc1ccccc1)C(=O)N[C@@H](CCCNC(=N)N)C(=O)O [Peptide P27] (H-LTVDLFR-OH) | N/A (N/A indicates solubility lower than 0.1 mg/mL) | N/A (N/A indicates solubility lower than 0.1 mg/mL) |  |
|  | CC(C)C[C@H](NC(=O)[C@H](CCC(=O)O)NC(=O)[C@H](Cc1ccc(O)cc1)NC(=O)[C@H](Cc1ccc(O)cc1)NC(=O)[C@@H](N)CC(C)C)C(=O)N[C@@H](C)C(=O)N[C@@H](CCCNC(=N)N)C(=O)O [Peptide P14] (H-LYYELAR-OH) | N/A (N/A indicates solubility lower than 0.1 mg/mL) | N/A (N/A indicates solubility lower than 0.1 mg/mL) |  |
|  | CC(C)C[C@H](NC(=O)CNC(=O)[C@H](CC(C)C)NC(=O)[C@H](C)NC(=O)[C@H](C)NC(=O)[C@H](CO)NC(=O)[C@H](C)NC(=O)[C@H](C)NC(=O)[C@H](CCC(N)=O)NC(=O)[C@H](CC(C)C)NC(=O)[C@@H](N)C(C)C)C(=O)O [Peptide P24] (H-VLQAASAALGL-OH) | N/A (N/A indicates solubility lower than 0.1 mg/mL) | N/A (N/A indicates solubility lower than 0.1 mg/mL) |  |
|  | CC(C)C[C@H](NC(=O)[C@H](CC(C)C)NC(=O)[C@H](CC(N)=O)NC(=O)[C@@H](NC(=O)[C@H](CO)NC(=O)[C@@H](NC(=O)[C@@H]1CCCN1C(=O)[C@@H](N)CCC(=O)O)[C@@H](C)O)C(C)C)C(=O)N[C@@H](C)C(=O)N[C@@H](CCC(=O)O)C(=O)O [Peptide P29] (H-EPTSVNLLAE-OH) | N/A (N/A indicates solubility lower than 0.1 mg/mL) | N/A (N/A indicates solubility lower than 0.1 mg/mL) |  |
|  | CC(C)C[C@H](NC(=O)[C@H](Cc1ccccc1)NC(=O)[C@H](CC(=O)O)NC(=O)[C@@H](NC(=O)[C@H](CC(C)C)NC(=O)[C@@H](N)[C@@H](C)O)C(C)C)C(=O)N[C@@H](CCCNC(=N)N)C(=O)O [Peptide P25] (H-TLVDFLR-OH) | N/A (N/A indicates solubility lower than 0.1 mg/mL) | N/A (N/A indicates solubility lower than 0.1 mg/mL) |  |
|  | CC(C)C[C@H](NC(=O)[C@H](CO)NC(=O)[C@H](CC(C)C)NC(=O)[C@H](CC(=O)O)NC(=O)[C@H](CC(C)C)NC(=O)[C@@H](N)Cc1ccccc1)C(=O)N[C@@H](CCCCN)C(=O)O [Peptide P18] (H-FLDLSLK-OH) | N/A (N/A indicates solubility lower than 0.1 mg/mL) | N/A (N/A indicates solubility lower than 0.1 mg/mL) |  |
|  | CC(C)C[C@H](NC(=O)CNC(=O)[C@H](CO)NC(=O)[C@@H](N)CC(=O)O)C(=O)N[C@H](C(=O)N[C@@H](CC(C)C)C(=O)N[C@@H](CCCCN)C(=O)O)C(C)C [Peptide P11] (H-DSGLVLK-OH) | N/A (N/A indicates solubility lower than 0.1 mg/mL) |  | N/A (N/A indicates solubility lower than 0.1 mg/mL) |
|  | CC(C)C[C@H](NC(=O)[C@H](C)NC(=O)[C@@H](NC(=O)CNC(=O)[C@@H](NC(=O)[C@H](CO)NC(=O)[C@@H](NC(=O)[C@@H]1CCCN1C(=O)[C@@H](N)CCC(=O)O)[C@@H](C)O)C(C)C)C(C)C)C(=O)N[C@@H](C)C(=O)N[C@@H](CCC(=O)O)C(=O)O [Peptide P30] (H-EPTSVGVALAE-OH) |  | N/A (N/A indicates solubility lower than 0.1 mg/mL) | N/A (N/A indicates solubility lower than 0.1 mg/mL) |
|  | CC(C)C[C@H](NC(=O)[C@H](CCC(N)=O)NC(=O)[C@H](CC(C)C)NC(=O)[C@@H](NC(=O)[C@@H](N)CC(C)C)C(C)C)C(=O)N[C@@H](CC(=O)O)C(=O)N[C@@H](CC(N)=O)C(=O)N[C@@H](C)C(=O)N[C@@H](CCCCN)C(=O)O [Peptide P13] (H-LVLQLDNAK-OH) | N/A (N/A indicates solubility lower than 0.1 mg/mL) | N/A (N/A indicates solubility lower than 0.1 mg/mL) |  |
|  | CC(C)C[C@H](NC(=O)[C@H](C)NC(=O)[C@H](CC(N)=O)NC(=O)CN)C(=O)N[C@@H](C)C(=O)N[C@H](C(=O)N[C@@H](CCCNC(=N)N)C(=O)O)[C@@H](C)O [Peptide P1] (H-GNALATR-OH) | N/A (N/A indicates solubility lower than 0.1 mg/mL) |  |  |
|  | CC(C)C[C@H](NC(=O)[C@H](CCC(N)=O)NC(=O)[C@@H]1CCCN1)C(=O)N[C@@H](CCC(=O)O)C(=O)N[C@@H](CC(C)C)C(=O)N[C@H](C(=O)N[C@H](C(=O)N1CCC[C@H]1C(=O)N[C@@H](CC(N)=O)C(=O)O)C(C)C)C(C)C [Peptide P22] (H-PQLELVVPN-OH) | N/A (N/A indicates solubility lower than 0.1 mg/mL) | N/A (N/A indicates solubility lower than 0.1 mg/mL) |  |
| ≤ 5 mg/mL | CC(C)[C@H](NC(=O)[C@H](CCC(=O)O)NC(=O)[C@H](C)NC(=O)[C@H](Cc1ccccc1)NC(=O)[C@H](CCC(=O)O)NC(=O)[C@H](C)N)C(=O)N[C@@H](CO)C(=O)N[C@@H](CCCCN)C(=O)O [Peptide P6] (H-AEFAEVSK-OH) |  |  |  |
